Laboratory results as given in ChEMBL document CHEMBL1201862, “PubChem BioAssay data set” (2004).
Active and inactive are the calls of the source.

What was measured:
[1] = target: T1, Alkaline phosphatase, tissue-nonspecific isozyme (Homo sapiens, UniProt P05186); experiment: potency against alkaline phosphatase TNAP – biochemical, luminescent, dose response, SAR follow-up (AID 1056)
T1 sequence (P05186 whole entry): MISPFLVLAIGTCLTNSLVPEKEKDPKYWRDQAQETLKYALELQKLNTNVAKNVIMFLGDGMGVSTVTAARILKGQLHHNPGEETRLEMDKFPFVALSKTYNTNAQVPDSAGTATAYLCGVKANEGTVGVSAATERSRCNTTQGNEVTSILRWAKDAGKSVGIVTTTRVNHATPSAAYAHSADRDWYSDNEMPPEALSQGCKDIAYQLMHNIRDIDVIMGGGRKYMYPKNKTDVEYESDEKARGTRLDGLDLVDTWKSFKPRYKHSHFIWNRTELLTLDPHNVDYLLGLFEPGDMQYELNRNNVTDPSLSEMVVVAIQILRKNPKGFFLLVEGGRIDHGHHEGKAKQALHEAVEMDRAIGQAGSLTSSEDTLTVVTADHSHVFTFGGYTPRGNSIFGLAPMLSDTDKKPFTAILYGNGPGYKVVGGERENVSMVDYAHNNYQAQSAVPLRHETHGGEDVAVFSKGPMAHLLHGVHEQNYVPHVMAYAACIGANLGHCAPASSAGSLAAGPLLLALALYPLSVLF

[2] = target: Alkaline phosphatase, placental type (Homo sapiens, UniProt P05187); experiment: human placental alkaline phosphatase inhibition – biochemical, luminescence, confirmation (AID 1512); type: functional
Alkaline phosphatase, placental type, sequence (P05187 whole entry): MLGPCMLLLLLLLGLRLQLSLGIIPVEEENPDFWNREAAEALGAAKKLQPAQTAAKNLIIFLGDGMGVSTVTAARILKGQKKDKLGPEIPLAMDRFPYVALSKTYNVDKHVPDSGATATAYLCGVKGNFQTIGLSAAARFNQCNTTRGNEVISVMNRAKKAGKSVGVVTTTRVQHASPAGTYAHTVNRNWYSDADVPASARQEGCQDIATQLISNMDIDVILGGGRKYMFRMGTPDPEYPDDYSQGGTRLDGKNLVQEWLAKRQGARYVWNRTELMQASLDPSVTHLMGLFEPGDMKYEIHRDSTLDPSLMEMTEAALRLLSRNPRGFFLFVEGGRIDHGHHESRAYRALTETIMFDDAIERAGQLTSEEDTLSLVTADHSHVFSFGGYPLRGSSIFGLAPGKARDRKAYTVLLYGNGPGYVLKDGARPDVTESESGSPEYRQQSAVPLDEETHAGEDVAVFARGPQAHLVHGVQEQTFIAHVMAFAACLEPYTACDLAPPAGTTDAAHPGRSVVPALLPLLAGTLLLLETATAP

Estrogen receptor = target: T2, Estrogen receptor (Homo sapiens, UniProt P03372);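 note: potency for inhibiting coactivator peptide recruitment to the receptor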
T2 sequence (P03372 whole entry): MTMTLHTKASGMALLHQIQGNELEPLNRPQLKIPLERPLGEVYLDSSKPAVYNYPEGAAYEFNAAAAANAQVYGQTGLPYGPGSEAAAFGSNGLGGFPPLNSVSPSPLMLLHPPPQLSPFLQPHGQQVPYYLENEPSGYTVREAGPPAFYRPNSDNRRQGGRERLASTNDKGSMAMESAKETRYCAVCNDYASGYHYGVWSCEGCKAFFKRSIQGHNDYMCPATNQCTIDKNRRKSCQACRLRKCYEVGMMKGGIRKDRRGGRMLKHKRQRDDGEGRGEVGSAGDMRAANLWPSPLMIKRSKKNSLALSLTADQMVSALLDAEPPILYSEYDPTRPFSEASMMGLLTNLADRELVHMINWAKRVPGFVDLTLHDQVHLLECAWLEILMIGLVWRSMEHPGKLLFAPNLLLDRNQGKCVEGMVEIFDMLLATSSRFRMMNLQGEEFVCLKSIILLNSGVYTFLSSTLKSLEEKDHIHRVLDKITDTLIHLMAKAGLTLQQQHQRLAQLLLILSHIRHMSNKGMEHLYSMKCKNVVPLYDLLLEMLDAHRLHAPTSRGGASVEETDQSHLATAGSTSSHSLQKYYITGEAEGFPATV

Estrogen receptor beta [3] = target: T3, Estrogen receptor beta (Homo sapiens, UniProt Q92731);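 note: recombinant ER-beta bound to coactivator SRC1 peptide in presence of estradiol agonist; inhibitors block coactivator peptide binding and lower the FRET signal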
T3 sequence (Q92731 whole entry, the tested form may be a part): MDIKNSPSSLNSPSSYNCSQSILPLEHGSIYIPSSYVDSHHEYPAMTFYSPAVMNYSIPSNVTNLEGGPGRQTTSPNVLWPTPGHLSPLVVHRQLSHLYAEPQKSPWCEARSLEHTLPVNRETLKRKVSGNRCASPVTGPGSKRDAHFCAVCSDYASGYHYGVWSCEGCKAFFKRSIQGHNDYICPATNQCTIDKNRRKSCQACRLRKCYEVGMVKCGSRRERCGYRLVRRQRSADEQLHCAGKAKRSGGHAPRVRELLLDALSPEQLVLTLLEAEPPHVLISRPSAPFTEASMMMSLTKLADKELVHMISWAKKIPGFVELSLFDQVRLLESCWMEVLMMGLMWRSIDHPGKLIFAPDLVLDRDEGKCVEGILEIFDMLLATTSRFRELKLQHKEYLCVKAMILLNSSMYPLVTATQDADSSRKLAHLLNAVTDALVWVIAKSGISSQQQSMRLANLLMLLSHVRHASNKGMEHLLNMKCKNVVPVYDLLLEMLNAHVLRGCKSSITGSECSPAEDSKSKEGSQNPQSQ

[4] = target: T4, Carboxy-terminal domain RNA polymerase II polypeptide A small phosphatase 1 (Homo sapiens, UniProt Q9GZU7); experiment: CTDSP1 inhibitors, concentration-response, biochemical, absorbance readout, ultra-high-throughput screen actives (AID 540297); type: functional
T4 sequence (Q9GZU7 whole entry): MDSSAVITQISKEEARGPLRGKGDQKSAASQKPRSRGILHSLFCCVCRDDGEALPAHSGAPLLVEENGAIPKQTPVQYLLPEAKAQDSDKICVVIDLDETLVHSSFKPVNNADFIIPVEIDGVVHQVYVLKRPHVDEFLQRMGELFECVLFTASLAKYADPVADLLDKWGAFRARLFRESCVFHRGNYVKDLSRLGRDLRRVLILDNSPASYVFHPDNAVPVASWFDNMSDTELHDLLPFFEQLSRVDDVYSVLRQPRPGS

Estrogen receptor beta [5] = target: T3, Estrogen receptor beta; experiment: blockers of SRC-3 recruitment to ERβ – biochemical, ELISA, streptavidin-HRP readout, orthogonal assay, confirmation (AID 1060)
HEK293 [6] = experiment: inhibition of NOD1-driven NF-kB reporter – cell-based, luminescence, uHTS, primary screen (AID 1578); type: functional; conditions: Homo sapiens
[7] = target: Nucleotide-binding oligomerization domain-containing protein 2 (Homo sapiens, UniProt Q9HC29); experiment: inhibition of NOD2-driven NF-kB reporter – cell-based, luminescence, uHTS, HEK293 (AID 1566); type: functional
Nucleotide-binding oligomerization domain-containing protein 2, sequence (Q9HC29 whole entry, the tested form may be a part): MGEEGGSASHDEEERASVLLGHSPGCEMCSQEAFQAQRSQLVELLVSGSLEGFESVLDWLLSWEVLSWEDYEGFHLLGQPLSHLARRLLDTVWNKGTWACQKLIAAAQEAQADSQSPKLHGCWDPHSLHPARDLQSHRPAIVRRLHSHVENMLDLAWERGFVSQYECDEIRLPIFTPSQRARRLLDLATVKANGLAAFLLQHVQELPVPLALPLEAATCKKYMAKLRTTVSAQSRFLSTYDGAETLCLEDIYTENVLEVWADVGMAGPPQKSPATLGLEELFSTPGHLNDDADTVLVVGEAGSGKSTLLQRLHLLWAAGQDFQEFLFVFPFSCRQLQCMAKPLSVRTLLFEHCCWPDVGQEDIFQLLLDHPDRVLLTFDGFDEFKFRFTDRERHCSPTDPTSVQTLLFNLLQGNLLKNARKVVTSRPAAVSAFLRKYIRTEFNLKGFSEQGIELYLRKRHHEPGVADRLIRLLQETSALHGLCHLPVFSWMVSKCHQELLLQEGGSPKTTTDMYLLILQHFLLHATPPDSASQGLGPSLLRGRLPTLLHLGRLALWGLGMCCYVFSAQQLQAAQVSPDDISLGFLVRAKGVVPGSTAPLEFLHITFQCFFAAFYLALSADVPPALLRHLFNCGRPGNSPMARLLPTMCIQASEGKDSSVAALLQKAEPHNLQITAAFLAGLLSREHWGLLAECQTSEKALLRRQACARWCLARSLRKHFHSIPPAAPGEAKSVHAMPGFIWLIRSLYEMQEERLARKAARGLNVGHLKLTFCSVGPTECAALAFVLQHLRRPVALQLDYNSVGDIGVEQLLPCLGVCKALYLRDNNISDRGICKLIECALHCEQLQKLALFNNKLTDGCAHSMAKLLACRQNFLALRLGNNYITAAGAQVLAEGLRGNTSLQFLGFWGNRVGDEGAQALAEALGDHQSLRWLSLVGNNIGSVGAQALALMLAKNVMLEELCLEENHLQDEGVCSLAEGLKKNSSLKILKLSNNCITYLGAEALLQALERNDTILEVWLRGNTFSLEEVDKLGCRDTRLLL

HEK293 [8] = experiment: cells; type: functional, cell-based; conditions: Homo sapiens
HEK293 [9] = experiment: cells; type: functional, cell-based; conditions: Homo sapiens; remark: listed apart in the source
HEK293 [10] = experiment: NOD2 signaling inhibitors in MDP-stimulated cells, cell-based, uHTS, luminescence (AID 2001); type: functional; conditions: Homo sapiens
HEK293 [11] = experiment: cells; type: functional, cell-based; conditions: Homo sapiens; remark: listed apart in the source
X-box-binding protein 1 = target: T5, X-box-binding protein 1 (Homo sapiens, UniProt P17861); type: functional, Cricetulus griseus;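 note: confirmatory dose-response counter-screen serving a CHOP assay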
T5 sequence (P17861 whole entry): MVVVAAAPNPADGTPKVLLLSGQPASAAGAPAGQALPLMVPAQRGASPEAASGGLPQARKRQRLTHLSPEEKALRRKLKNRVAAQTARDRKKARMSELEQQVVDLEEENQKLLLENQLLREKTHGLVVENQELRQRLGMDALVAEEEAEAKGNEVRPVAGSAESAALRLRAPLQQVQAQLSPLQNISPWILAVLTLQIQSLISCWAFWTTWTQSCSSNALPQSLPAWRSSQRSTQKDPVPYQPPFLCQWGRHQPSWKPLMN

fMet-Leu-Phe receptor = target: T6, fMet-Leu-Phe receptor (Homo sapiens, UniProt P21462); experiment: formyl peptide receptor binders – dose response (AID 519); type: functional
T6 sequence (P21462 whole entry): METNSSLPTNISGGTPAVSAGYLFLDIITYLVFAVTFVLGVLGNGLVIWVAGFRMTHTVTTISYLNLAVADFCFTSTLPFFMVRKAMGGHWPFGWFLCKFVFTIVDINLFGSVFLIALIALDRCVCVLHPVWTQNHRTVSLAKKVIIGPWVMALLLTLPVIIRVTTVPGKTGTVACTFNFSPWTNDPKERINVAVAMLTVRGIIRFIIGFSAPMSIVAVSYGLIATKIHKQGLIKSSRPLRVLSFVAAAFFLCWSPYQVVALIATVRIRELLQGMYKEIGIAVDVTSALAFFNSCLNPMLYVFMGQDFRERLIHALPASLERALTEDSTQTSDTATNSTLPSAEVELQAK

[12] = target: Peroxisome proliferator-activated receptor gamma/Nuclear receptor coactivator 2 (Homo sapiens, UniProt P37231); type: functional;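 note: agonist potency for raising coactivator recruitment to the receptor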
[13] = Luminescence Cell-Based Dose Retest to Confirm Inhibitors of Cancer Stem Cells. [Related pubchem assays (depositor defined):AID2717, AID2721]; type: functional; conditions: Homo sapiens
[14] = target: Peroxisome proliferator-activated receptor gamma/Nuclear receptor coactivator 3 (Homo sapiens, UniProt P37231); type: functional;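 note: agonist potency for raising coactivator recruitment to the receptor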
[15] = viability loss of HMLE_sh_eGFP cells – cell-based, luminescence, counter-screen for HMLE_sh_ECad selective toxicity project, dose response (AID 463074); type: functional, Homo sapiens;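 note: HMLE human mammary epithelial cells expressing control shRNA against eGFP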
[16] = target: Peroxisome proliferator-activated receptor gamma/Nuclear receptor coactivator 1 (Homo sapiens, UniProt P37231); type: functional;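 note: agonist potency as compounds enhance coactivator SRC-1 recruitment to PPARgamma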
Bcl-2-related protein A1 = target: T7, Bcl-2-related protein A1 (Mus musculus, UniProt Q07440); type: functional;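 note: confirmatory dose–response counterscreen on Bfl-1, used to check hits from a UBC13 polyubiquitin inhibitor campaign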
T7 sequence (Q07440 whole entry): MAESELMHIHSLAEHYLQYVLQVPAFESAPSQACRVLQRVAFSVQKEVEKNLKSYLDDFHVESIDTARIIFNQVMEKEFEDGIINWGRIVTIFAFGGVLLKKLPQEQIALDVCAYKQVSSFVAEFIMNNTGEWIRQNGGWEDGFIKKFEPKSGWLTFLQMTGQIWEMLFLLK

[17] = target: T8, Ubiquitin-conjugating enzyme E2 N (Homo sapiens, UniProt P61088); type: functional;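 note: Dose-response confirmation in a TR-FRET assay detecting UBC13-driven polyubiquitin chain formation, inhibition measured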
T8 sequence (P61088 whole entry): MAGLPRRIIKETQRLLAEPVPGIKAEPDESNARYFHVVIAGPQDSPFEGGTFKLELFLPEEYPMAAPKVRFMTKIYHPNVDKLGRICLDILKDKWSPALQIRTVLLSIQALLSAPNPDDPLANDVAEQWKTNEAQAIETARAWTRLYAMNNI

HeLa = experiment: viability loss in HeLa cells – cell-based, 24 h, cherry-picked samples, cytotoxicity control, dose response (AID 504726); type: functional; conditions: Homo sapiens;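 note: potency for cytotoxicity as loss of luminescence signal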
NS3 = NS3 (Hepatitis C virus, UniProt A3EZJ3); experiment: PubChem AID 2173; set-up: species or system Hepacivirus hominis
NS3, sequence (A3EZJ3 whole entry): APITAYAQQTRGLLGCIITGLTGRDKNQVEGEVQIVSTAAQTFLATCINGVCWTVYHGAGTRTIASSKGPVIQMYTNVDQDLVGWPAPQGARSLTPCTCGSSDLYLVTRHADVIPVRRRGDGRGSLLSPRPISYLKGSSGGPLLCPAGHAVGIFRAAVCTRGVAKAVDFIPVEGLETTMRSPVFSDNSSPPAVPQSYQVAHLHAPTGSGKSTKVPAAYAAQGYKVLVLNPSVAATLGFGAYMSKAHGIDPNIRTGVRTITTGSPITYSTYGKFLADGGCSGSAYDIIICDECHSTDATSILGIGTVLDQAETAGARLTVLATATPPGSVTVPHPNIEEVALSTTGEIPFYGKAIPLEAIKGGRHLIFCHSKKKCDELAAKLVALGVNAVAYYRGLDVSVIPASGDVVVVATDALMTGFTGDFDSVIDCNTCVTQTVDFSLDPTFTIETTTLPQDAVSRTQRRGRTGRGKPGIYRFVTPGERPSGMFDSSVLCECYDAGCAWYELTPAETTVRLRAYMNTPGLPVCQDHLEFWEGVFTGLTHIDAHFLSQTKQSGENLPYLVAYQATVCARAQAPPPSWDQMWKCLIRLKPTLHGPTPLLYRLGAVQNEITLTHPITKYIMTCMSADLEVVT

Paired box protein Pax-8 = Paired box protein Pax-8 (Homo sapiens, UniProt Q06710); experiment: PAX8 transcriptional activity inhibition in RMG-I – RMG-I cells, luciferase, cherry-pick, dose response (AID 687027); type: functional, cell-based;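 note: luciferase reporter driven by Pax8 target thyroperoxidase promoter measured by SteadyGlo luminescence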
Paired box protein Pax-8, sequence (Q06710 whole entry): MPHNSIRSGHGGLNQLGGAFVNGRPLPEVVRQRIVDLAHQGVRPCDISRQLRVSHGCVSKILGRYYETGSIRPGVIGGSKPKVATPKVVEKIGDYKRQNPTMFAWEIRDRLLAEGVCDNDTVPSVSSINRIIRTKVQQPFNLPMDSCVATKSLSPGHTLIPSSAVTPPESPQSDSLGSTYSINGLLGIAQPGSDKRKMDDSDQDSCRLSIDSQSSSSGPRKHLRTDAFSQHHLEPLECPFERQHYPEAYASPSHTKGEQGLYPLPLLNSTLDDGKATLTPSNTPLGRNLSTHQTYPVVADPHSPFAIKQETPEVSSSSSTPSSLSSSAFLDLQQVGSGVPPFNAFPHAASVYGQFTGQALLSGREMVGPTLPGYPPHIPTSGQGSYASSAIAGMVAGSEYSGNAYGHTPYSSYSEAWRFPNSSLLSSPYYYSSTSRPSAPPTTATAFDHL

Vero [18] = experiment: cells; type: functional, cell-based; conditions: Chlorocebus sabaeus
Vero [19] = experiment: cells; type: functional; conditions: Chlorocebus sabaeus
Prothrombin = Prothrombin (Homo sapiens, UniProt P00734); experiment: Thrombin 1536 HTS Dose Response Confirmation. [Related pubchem assays: 1046 (Thrombin 1536 HTS; hits were confirmed in this assay)]; type: functional
Streptococcus = experiment: GAS UMAA2166 growth inhibition – luminescence, BacTiterGlo, counter-screen for streptokinase expression inhibitor project, dose response (AID 1915); type: functional, organism-based;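 note: potency for reduction of bacterial viability or growth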
[20] = test system: Streptococcus sp. 'group A'; experiment: Streptococcus pyogenes SK(-)GAS viability under kanamycin – luminescence, BacTiterGlo, confirmation, counter-screen for streptokinase expression inhibitor project, dose response (AID 1900); type: functional, organism-based
Streptokinase A = target: T9, Streptokinase A (Streptococcus pyogenes serotype M1, UniProt P10520); experiment: viability-normalized secreted streptokinase activity reduction – plasminogen activation absorbance, OD405, dose response (AID 1914); type: functional, Streptococcus pyogenes M1 GAS;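 note: secreted streptokinase activity via plasminogen activation per viability signal from cell pellet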
T9 sequence (P10520 whole entry): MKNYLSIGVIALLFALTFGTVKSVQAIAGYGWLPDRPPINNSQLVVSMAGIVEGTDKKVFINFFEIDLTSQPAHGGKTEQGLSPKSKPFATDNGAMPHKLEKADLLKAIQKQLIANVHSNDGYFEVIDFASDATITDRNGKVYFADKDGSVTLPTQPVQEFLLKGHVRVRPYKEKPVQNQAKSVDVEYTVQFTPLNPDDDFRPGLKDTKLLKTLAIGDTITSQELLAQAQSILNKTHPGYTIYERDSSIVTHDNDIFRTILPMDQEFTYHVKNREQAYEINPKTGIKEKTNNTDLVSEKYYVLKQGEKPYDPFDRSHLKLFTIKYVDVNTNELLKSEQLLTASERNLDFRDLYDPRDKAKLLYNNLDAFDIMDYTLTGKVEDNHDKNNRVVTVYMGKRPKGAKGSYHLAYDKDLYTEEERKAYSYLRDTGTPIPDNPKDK

Cc1ccc(-c2nnc(SCC(=O)c3ccc(O)c(O)c3)n2C)cc1
IC50 [1]: > 100 µM (inactive)
IC50 [2]: 11.7 µM (active)

COc1cc(NC(=O)CSc2nc3ccccc3c(=O)n2C)ccc1NC(=O)c1ccco1
IC50 (Estrogen receptor): 32.5 µM (not active)

O=C(Nc1sc2c(c1C(=O)O)CCC2)c1ccccc1
IC50 (Estrogen receptor beta [3]): 6.88 µM (active)
IC50 [4]: 12.1 µM (active)
IC50 (Estrogen receptor beta [5]): > 109 µM (not active)

Cc1cc(=O)[nH]c(-n2[nH]c(C)cc2=O)n1
IC50 [2]: > 100 µM (inactive)

O=C(COc1ccccc1)Nc1ccc(Cl)c(-c2nc3ncccc3o2)c1
IC50 (Estrogen receptor): > 50 µM (not active)

Cc1ccc(C)c(N2CCN(C(=O)C34CC5CC(C3)CC(n3nnc(C)n3)(C5)C4)CC2)c1
EC50 (HEK293 [6]): 7.6 µM (active)
EC50 [7]: 5.6 µM (active)
IC50 (HEK293 [8]): 6.27 µM (active)
IC50 (HEK293 [9]): > 20 µM (inactive)
IC50 (HEK293 [10]): 4.61 µM (active)
IC50 (HEK293 [11]): 13.1 µM (active)

CSCCOC(=O)c1[nH]c2c(c1C)C(=O)CC(c1ccco1)C2 (stereo not drawn)
IC50 (Estrogen receptor): > 50 µM (not active)
IC50 (Estrogen receptor beta [3]): > 50 µM (not active)

Cc1cc(C)nc(SCC(=O)c2ccc(Cl)cc2Cl)n1
IC50 [1]: > 100 µM (inactive)
IC50 [2]: > 100 µM (inactive)

COc1ccc(-c2nc(-c3ccc(NC(=O)c4ccc(Br)o4)cc3)no2)cc1OC
Absolute IC50 (XBP1) (X-box-binding protein 1): 10 µM
Ki (fMet-Leu-Phe receptor): > 66.7 µM (inactive)
EC50 [12]: 49.2 µM (not active)
AC50 [13]: 2.21 µM (active)
EC50 [14]: > 79.4 µM (not active)
AC50 [15]: 22.8 µM (active)
EC50 [16]: > 79.4 µM (not active)

Cc1ccc(N(C(=O)c2snc(C(N)=O)c2N)C(C(=O)NCC2CCCO2)c2c[nH]c3ccccc23)cc1 (stereo not drawn)
IC50 (Bcl-2-related protein A1): > 20 µM (inactive)
IC50 [17]: 12.1 µM (active)

COc1cc(/C=N/NC(=O)Nc2ccccc2)ccc1OCCOc1ccccc1C
Absolute IC50 (XBP1) (X-box-binding protein 1): 10 µM

Cn1c(=O)c2c(nc(SCC(=O)NCc3ccc4c(c3)OCO4)n2Cc2ccc(Cl)cc2)n(C)c1=O
AC50 (HeLa): 64.6 µM (active)

CNc1ccc(Br)cc(C(=O)/C=C/c2cc(OC)ccc2OC)c1=O
IC50 (NS3): 11.3 µM (not active)
AC50 (Paired box protein Pax-8): 7.83 µM (active)
IC50 (Vero [18]): 7.29 µM (active)
CC50 (Vero [19]): 23.1 µM (active)

Cc1nc(SCC(=O)N2CCc3ccccc3C2)c2c(C)c(C)sc2n1
EC50 (HEK293 [6]): 6.12 µM (active)
IC50 (Prothrombin): > 50 µM (not active)
EC50 [7]: 9.64 µM (active)
IC50 (HEK293 [9]): > 20 µM (inactive)
IC50 (HEK293 [10]): 9.12 µM (inactive)

CCCCc1nc(N2CCN(C(=O)c3ccco3)CC2)c(C#N)c2c1CCCC2
EC50 (HEK293 [6]): 10.1 µM (active)
EC50 [7]: 7.59 µM (active)
EC50 (Streptococcus): 14.4 µM (active)
IC50 (HEK293 [8]): 11.9 µM (active)
IC50 (HEK293 [9]): > 20 µM (inactive)
EC50 [20]: 7.4 µM (active)
EC50 (Streptokinase A): 8.54 µM (active)
IC50 (HEK293 [10]): 12.2 µM (inactive)
IC50 (HEK293 [11]): 15.6 µM (active)

O=C(C1=C(O)C(=O)N(Cc2ccco2)C1c1cccc(Cl)c1)c1ccc2c(c1)OCCO2 (stereo not drawn)
IC50 (NS3): 4.61 µM (active)
